Experimental data reported in patent US20080312268A1, “Substituted tricyclic piperidone compounds” (Gruenenthal GMBH, priority 2005, published 2008).
Structures can show the parent of a compound that is named as a salt.

How the values were obtained:
NA re-uptake = molecular target: T1, NA re-uptake (Rattus norvegicus, UniProt Q63380); assay: Measurement of noradrenalin re-uptake in rat brain synaptosomes; format: biochemical; conditions: synaptosomes (P2 fraction) from hypothalamus of male rat brains
T1 construct: Synaptosomes from rat brain areas were freshly isolated for the purposes of these in-vitro studies; from tissue; host or cells: rat brain synaptosomes (P2 fraction), hypothalamus of male rats
T1 sequence (Q63380 1-617): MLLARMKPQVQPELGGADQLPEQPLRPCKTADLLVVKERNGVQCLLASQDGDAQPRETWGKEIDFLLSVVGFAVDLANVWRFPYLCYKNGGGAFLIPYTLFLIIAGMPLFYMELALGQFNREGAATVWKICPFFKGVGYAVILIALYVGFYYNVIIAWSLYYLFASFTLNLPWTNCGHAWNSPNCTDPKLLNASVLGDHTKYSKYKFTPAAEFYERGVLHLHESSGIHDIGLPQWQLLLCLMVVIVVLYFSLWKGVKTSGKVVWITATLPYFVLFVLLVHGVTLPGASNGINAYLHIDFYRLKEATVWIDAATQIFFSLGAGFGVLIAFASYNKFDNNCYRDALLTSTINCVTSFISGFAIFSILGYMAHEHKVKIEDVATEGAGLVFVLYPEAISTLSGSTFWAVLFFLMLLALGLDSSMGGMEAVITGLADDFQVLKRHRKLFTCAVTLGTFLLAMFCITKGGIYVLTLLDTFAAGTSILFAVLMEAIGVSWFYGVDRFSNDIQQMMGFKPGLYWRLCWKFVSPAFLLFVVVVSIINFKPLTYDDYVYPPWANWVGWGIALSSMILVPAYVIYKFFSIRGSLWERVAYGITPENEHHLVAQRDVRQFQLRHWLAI
Description: Synaptosomes from rat brain areas were freshly isolated for the purposes of these in-vitro studies. In each case a “P2” fraction was used, which was prepared in accordance with the instructions given by Gray and Whittaker (E. G. Gray und V. P. Whittaker (1962) J. Anat. 76, 79-88). For NA uptake these vesicular particles were isolated from the hypothalamus of male rat brains.
(§1) A detailed description of the method can be found in the literature (M. Ch. Frink, H.-H. Hennies, W. Englberger, M. Haurand and B. Wilffert (1996) Arzneim.-Forsch./Drug Res. 46 (III), 11, 1029-1036).

5-HT re-uptake = molecular target: T2, 5-HT re-uptake (Rattus norvegicus, UniProt P31652); assay: Measurement of serotonin re-uptake in rat brain synaptosomes; format: biochemical; conditions: synaptosomes (P2 fraction) from medulla and pons region of male rat brains
T2 construct: Synaptosomes from rat brain areas were freshly isolated for the purposes of these in-vitro studies; from tissue; host or cells: rat brain synaptosomes (P2 fraction), medulla and pons of male rats
T2 sequence (P31652 whole entry): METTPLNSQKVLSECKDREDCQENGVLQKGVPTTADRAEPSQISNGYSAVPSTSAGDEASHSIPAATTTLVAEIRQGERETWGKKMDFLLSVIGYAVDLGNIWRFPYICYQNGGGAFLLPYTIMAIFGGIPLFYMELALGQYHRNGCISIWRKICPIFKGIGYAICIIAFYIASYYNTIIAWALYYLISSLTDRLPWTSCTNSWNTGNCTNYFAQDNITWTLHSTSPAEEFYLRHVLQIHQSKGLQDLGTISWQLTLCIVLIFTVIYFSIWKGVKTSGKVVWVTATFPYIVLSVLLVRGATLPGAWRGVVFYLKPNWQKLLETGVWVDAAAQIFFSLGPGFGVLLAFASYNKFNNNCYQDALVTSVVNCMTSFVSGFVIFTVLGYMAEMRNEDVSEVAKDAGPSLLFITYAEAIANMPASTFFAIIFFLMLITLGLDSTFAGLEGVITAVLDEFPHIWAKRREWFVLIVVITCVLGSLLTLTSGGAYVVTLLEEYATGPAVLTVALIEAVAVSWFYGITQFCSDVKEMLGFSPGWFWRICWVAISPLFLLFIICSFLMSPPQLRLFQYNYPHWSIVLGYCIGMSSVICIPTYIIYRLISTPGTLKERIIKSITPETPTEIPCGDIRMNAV
Description: Synaptosomes from rat brain areas were freshly isolated for the purposes of these in-vitro studies. In each case a “P2” fraction was used, which was prepared in accordance with the instructions given by Gray and Whittaker (E. G. Gray und V. P. Whittaker (1962) J. Anat. 76, 79-88). For 5HT uptake these vesicular particles were isolated from the medulla and pons region of male rat brains.
as §1

SMILES | melting point | NA re-uptake [10 μm], % inhibition (NA re-uptake) | 5-HT re-uptake [10 μm], % inhibition (5-HT re-uptake)
CCOC(=O)C12Cc3ccccc3C(CN(C(=O)Nc3ccccc3)C1)C2=O (stereo not drawn) | 199 to 203 °C |  | 
CCOC(=O)C12Cc3ccc(C#N)cc3C(CN(Cc3ccccc3)C1)C2=O (stereo not drawn) | 158 to 160 °C |  | 
CCOC(=O)C12Cc3ccccc3C(CN(C)C1)C2=O (stereo not drawn) [Compound 9, Ethyl-N-methyl-11-oxo-1,3,4,6-tetrahydro-1,5-methano-3-benzazocine-5(2H)-carboxylate hydrochloride] |  | 80% | 77%

The next lines start with results.

melting point | SMILES | NA re-uptake [10 μm], % inhibition (NA re-uptake) | 5-HT re-uptake [10 μm], % inhibition (5-HT re-uptake)
117 to 119 °C | CCOC(=O)C12Cc3ccccc3C(CN(Cc3ccccc3)C1)C2=O (stereo not drawn) |  | 
84 to 85 °C | CCOC(=O)C12Cc3cc(OC)ccc3C(CN(Cc3ccccc3)C1)C2=O (stereo not drawn) |  | 
